Results reported in US20110288154A1, “RNA Interference Mediated Inhibition of Epithelial Sodium Channel (ENaC) Gene Expression Using Short Interfering Nucleic Acid (siNA)” (MERCK & CO., INC., priority 2008, published 2011).
[invAb] = inverted abasic unit; d = 2'-deoxy (DNA); m = 2'-O-methyl; r = 2'-OH (RNA); f = 2'-fluoro

Assays:
mSCNN1A mRNA = assay: Screening of ENaCα siNAs in mouse NIH 3T3 cells (quantitative RT-PCR); format: cell-based; set-up: Percent Reduction of the mSCNN1A mRNA relative to a non-targeting control siNA / Mouse % KD (efficacy of ENaCα mRNA knockdown): concentration or dose not given beside the values; details: for Mean (mSCNN1A expression normalized to the level of m36B4) / Percent Reduction of the mSCNN1A mRNA relative to a non-targeting control siNA / Avg ENaCα Expression (mSCNN1A) / Avg 36B4 Expression: mouse NIH 3T3 cells, n = 3; for Mean (mSCNN1A expression normalized to the level of m36B4) / Percent Reduction of the mSCNN1A mRNA relative to a non-targeting control siNA / Avg 36B4 Expression: 24 hours post-transfection; for Avg ENaCα Expression (mSCNN1A): harvested 24 hours post-transfection; for Avg 36B4 Expression: housekeeping gene used for normalisation
In short: (§1)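 Knockdown read-out: qRT-PCR quantified against a standard curve of same-cell-line RNA, ENaCα normalized to species housekeeping gene (GAPDH or 36B4) and expressed versus non-targeting control. Cells received lipid-complexed siNA, 25 nM final, in triplicate and were assayed at 24 h; IC50 by variable-slope sigmoidal fit.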

rSCNN1A (r ENaCα) mRNA = assay: Screening of ENaCα siNAs in Rat H-4-II-E cells (quantitative RT-PCR); format: cell-based; set-up: Percent Reduction of the r ENaCα mRNA relative to a non-targeting control siNA (NTCs) / Rat % KD (efficacy of ENaCα mRNA knockdown): concentration or dose not given beside the values; details: for Mean (rSCNN1A expression normalized to the level of rGAPDH) / Percent Reduction of the r ENaCα mRNA relative to a non-targeting control siNA (NTCs) / Avg ENaCα Expression (rSCNN1A) / Avg GAPDH Expression (rGAPDH): Rat H-4-II-E cells, n = 3; for Mean (rSCNN1A expression normalized to the level of rGAPDH) / Percent Reduction of the r ENaCα mRNA relative to a non-targeting control siNA (NTCs) / Avg GAPDH Expression (rGAPDH): 24 hours post-transfection; for Avg ENaCα Expression (rSCNN1A): harvested 24 hours post-transfection; for Avg GAPDH Expression (rGAPDH): housekeeping gene used for normalisation
In short: as §1

| Substance | Mean (mSCNN1A expression normalized to the level of m36B4) (mSCNN1A mRNA) | Percent Reduction of the mSCNN1A mRNA relative to a non-targeting control siNA (mSCNN1A mRNA) [%] | Avg ENaCα Expression (mSCNN1A) (mSCNN1A mRNA) | Avg 36B4 Expression (mSCNN1A mRNA) | Mean (rSCNN1A expression normalized to the level of rGAPDH) (rSCNN1A (r ENaCα) mRNA) | Percent Reduction of the r ENaCα mRNA relative to a non-targeting control siNA (NTCs) (rSCNN1A (r ENaCα) mRNA) [%] | Avg ENaCα Expression (rSCNN1A) (rSCNN1A (r ENaCα) mRNA) | Avg GAPDH Expression (rGAPDH) (rSCNN1A (r ENaCα) mRNA) | IC50 (mSCNN1A mRNA; mouse cell line, dose response, read-out: Mouse IC50 (potency of ENaCα mRNA knockdown)) [nM] | Mouse % KD (efficacy of ENaCα mRNA knockdown) (mSCNN1A mRNA; mouse cell line, summary) [%] | IC50 (rSCNN1A (r ENaCα) mRNA; rat cell line, dose response, read-out: Rat IC50 (potency of ENaCα mRNA knockdown)) [nM] | Rat % KD (efficacy of ENaCα mRNA knockdown) (rSCNN1A (r ENaCα) mRNA; rat cell line, summary) [%] |
| --- | --- | --- | --- | --- | --- | --- | --- | --- | --- | --- | --- | --- |
| B uGuGGcuGuGccuAcAucu TTB / AGAuGuAGGcAcAGccAcAUU (sense UGUGGCUGUGCCUACAUCUTT; antisense AGAUGUAGGCACAGCCACAUU; siRNA; sense: DNA at AGT, 2'-fluoro at CU, [invAb] at 5' end, 3' end, backbone not given here; antisense: sugars from the 5' end rrrfmfmmmfmfmmffmfmmm, backbone not given here) [Site 1384] | 0.14 | −0.1 | 3.11 | 20.56 | 0.66 | 27.8 | 23.39 | 34.69 |  |  |  |  |
| B GuGuGGcuGuGccuAcAuc TTB / GAUGuAGGcAcAGccAcAcUU (sense GUGUGGCUGUGCCUACAUCTT; antisense GAUGUAGGCACAGCCACACUU; siRNA; B caps on sense ends, letter-case modifications not given here, further chemistry not given here) [Site 1383] | 0.04 | 82.4 | 0.91 | 14.23 | 0.63 | 50.7 | 15.01 | 23.52 | 3 | 82 | 1 | 50 |
| B AAccuGGGcAGccAGuGGA TTB / UCCAcuGGcuGcccAGGuuUU (sense AACCUGGGCAGCCAGUGGATT; antisense UCCACUGGCUGCCCAGGUUUU; siRNA; sense: sugars from the 5' end ddfffdddfddffddfddrdd, [invAb] at 5' end, 3' end, backbone not given here; antisense: sugars from the 5' end rrrmffmmffmfffmmmffmm, backbone not given here) [Site 1747] | 0.15 | −6.1 | 3.67 | 25.19 | 0.56 | 39.5 | 23.39 | 41.88 |  |  |  |  |
| B GGGcAGccAGuGGAGccuG TTB / CAGGcuccAcuGGcuGcccUU (sense GGGCAGCCAGUGGAGCCUGTT; antisense CAGGCUCCACUGGCUGCCCUU; siRNA; sense: DNA at AGT, 2'-fluoro at CU, [invAb] at 5' end, 3' end, backbone not given here; antisense: sugars from the 5' end rrrmffffmffmmffmfffmm, backbone not given here) [Site 1752] | 0.11 | 19.8 | 3.21 | 29.27 | 0.44 | 52.1 | 19.23 | 43.83 |  |  |  |  |
| B cccuGcuGuccAcAGuGAc TTB / GUCAcuGuGGAcAGcAGGGUU (sense CCCUGCUGUCCACAGUGACTT; antisense GUCACUGUGGACAGCAGGGUU; siRNA; sense: DNA at AGT, 2'-fluoro at CU, [invAb] at 5' end, 3' end, backbone not given here; antisense: sugars from the 5' end rrrmffmfmmmfmmfmmmmmm, backbone not given here) [Site 1121] | 0.27 | −14.5 | 3.39 | 11.45 | 0.84 | 34.6 | 19.44 | 23.01 |  |  |  |  |
